Test results published in patent US9751919B2, “Antimicrobial compositions comprising a hyaluronic acid binding peptide and a β-lactam antibiotic” (priority 2012, dated 2017).

Test system: MRSA, VISA, VRSA and E. coli
Experiment: MIC, agent alone, panel statement
Assay type: cell-based
Settings: CA-MRSA and HA-MRSA (checkerboard strains of Table 11)
Protocol: VISA (strains 92, 95 and 96), VRSA (strains 105 and 106) and E. coli (strain 69717) isolates were also tested. One MSSA was used as a control. All MICs were assessed using CLSI guidelines. Also assessed was the activity of cefazolin, ceftriazone, meropenem, and a piperacillin/tazobactam combination antibiotic. Minimum inhibitory concentration (MIC) is the lowest concentration of an antimicrobial that will inhibit the visible growth of a microorganism after incubation.
Antimicrobial Susceptibility Testing: A custom designed panel of antimicrobials was created. The panel included: PEP35, penicillin, piperacillin/tazobactam, cefazolin, ceftriaxone, meropenem, clarithromycin, clindamycin, gentamicin, amikacin, vancomycin, ciprofloxacin, levofloxacin, moxifloxacin, linezolid, trimethoprim/sulfamethoxazole and doxycycline. These agents were obtained as laboratory grade powders from their respective manufacturers. Stock solutions were prepared and dilutions made as described by the Clinical Laboratory Standards Institute (2005 CLSI). Following two subcultures from frozen stock the MICs of the antimicrobial agents for the isolates were determined by the CLSI 2005 approved broth macrodilution method. Briefly, test tubes containing doubling antibiotic dilutions (2 ml per tube) of cation adjusted Mueller-Hinton broth (eg. for Enterobacteriaceae) with or without lysed horse blood (2-5% V/V) [eg. for S. pneumoniae] were inoculated to achieve a final concentration of approximately 5×10^5 CFU/ml and incubated in ambient air for 24 hours prior to reading. Colony counts were performed periodically to confirm inocula. Quality control was performed every two weeks using a variety of ATCC QC organisms including; S. aureus 29213, E. faecalis 29212, E. coli 25922 and P. aeruginosa 27853. For all antimicrobials as well as PEP35, CLSI criteria were used.

LKQKIKHVVKLKVVVKLRSQLVKRKQN (listed as Mus sp.) [PEP35]
MIC alone, range: 512 to 1024 µg/mL
